In patent EP3415164A1, “COMPOSITION COMPRISING A SPECIFIC P38A INHIBITOR AND AN AGENT THAT INDUCES CHROMOSOME INSTABILITY AND MEDICAL USES THEREOF” (Fundació Institut de Recerca Biomèdica (IRB Barcelona), priority 2017, dated 2018):

Tests used:
[1] = test system: PyMT-induced mammary tumours; experiment: Growth, DNA damage and mitotic figures of PyMT-induced mammary tumours in treated mice; format: in vivo; conditions: for effect on tumour growth: taxane administered alone, 20 mg/kg once a week for three weeks
Protocol: Mouse experiments. PyMT p38αlox/lox UbCre female mice were generated by crossing p38αlox/lox mice (Ventura et al., 2007) with MMTV-PyMT, provided by William Muller (McGill University, Canada) and UbiquitinC-Cre-ERT2 mice (Ruzankina et al., 2007), being all mostly in FVB background. Mouse genotyping was performed by PCR using genomic tail DNA. Primers and conditions are available upon request. Mice were housed according to national and European Union regulations, and protocols were approved by the animal care and use committee of the Barcelona Science Park (PCB-CEEA). […] For p38α deletion, 4OHT (Sigma, H6278) was dissolved in 10% ethanol/90% corn oil (Sigma, C8267) and mice were injected intraperitoneally with 1 mg each day for five consecutive days. For chemotherapeutic treatments, mice were injected once a week with 20 mg/kg of docetaxel (Accord, 691719.0) or 20 mg/kg paclitaxel (Accord, 676253.0), for three consecutive weeks. […] Histology and immunohistochemistry. Tumours dissected from mice were fixed overnight in 10%-buffered formalin (Sigma, HT501128) and embedded in paraffin. Sections (5 µm-thick) were stained with hematoxylin and eosin (H&E). Specific antibodies were used for the following stainings: Ki67 (Novacastra, NCL), phospho-H3 (Millipore, 06-570), γ-H2AX (Millipore, 05-636). […] Apoptosis was detected by TUNEL using the "In situ Cell Death Detection Kit, Fluorescein" (Roche, 11684795910), following the manufacturer's instructions.

[2] = test system: breast tumour patient-derived xenografts (PDXs); experiment: Breast tumour patient-derived xenografts (PDXs) treated with taxanes and PH797804; format: in vivo
[3] = PH797804 in combination with paclitaxel or docetaxel
[4] = combination therapy versus single treatments, around day 15, responding PDXs (TN1, TN2, Lum1, Lum2)

| SMILES | tumour size ([1]; PH797804 15 mg/kg daily by oral gavage in combination with paclitaxel or docetaxel) | DNA damage (γ-H2AX staining) [1, 3] | missegregation events (phospho-H3 staining) [1, 3] | aneuploidy (FISH, chromosome 17 centromeric probe) ([2]; PH797804 with paclitaxel versus paclitaxel) | detrimental outcome induced by p38α inhibition ([2]; all nine PDXs) | anti-tumour response ([2]; co-administration with paclitaxel or docetaxel versus taxane alone, most cases (seven of nine PDXs)) | anti-tumour response ([2]; co-administration with taxane, PDX models TN5 and Lum4) | missegregation events [2, 4] | γ-H2AX staining [2, 4] | effect on tumour growth ([2]; p38α inhibition (PH797804) alone, 15 mg/kg daily oral, most PDX models) | effect on tumour growth [1] |
| --- | --- | --- | --- | --- | --- | --- | --- | --- | --- | --- | --- |
| CNC(=O)c1ccc(C)c(-n2c(C)cc(OCc3ccc(F)cc3F)c(Br)c2=O)c1 [PH797804] | substantial reduction of tumour size | increased levels of DNA damage | higher number of missegregation events | usually enhanced the aneuploidy induced by paclitaxel | never observed increased tumour growth or any other detrimental outcome | enhanced, accelerated or prolonged the anti-tumour response observed with the taxane alone | no additional benefit was observed | increased percentage of missegregation events | increased γ-H2AX staining | mild effect on tumour growth |  |
| CC(=O)O[C@@]12CO[C@@H]1C[C@H](O)[C@@]1(C)C(=O)[C@H](O)C3=C(C)[C@@H](OC(=O)[C@H](O)[C@@H](NC(=O)OC(C)(C)C)c4ccccc4)C[C@@](O)([C@@H](OC(=O)c4ccccc4)[C@H]21)C3(C)C [docetaxel] |  |  |  |  |  |  |  |  |  |  | only exerted a cytostatic effect on tumour growth |
| CC(=O)O[C@H]1C(=O)[C@@]2(C)[C@H]([C@H](OC(=O)c3ccccc3)[C@]3(O)C[C@H](OC(=O)[C@H](O)[C@@H](NC(=O)c4ccccc4)c4ccccc4)C(C)=C1C3(C)C)[C@]1(OC(C)=O)CO[C@@H]1C[C@@H]2O [paclitaxel] |  |  |  |  |  |  |  |  |  |  | only exerted a cytostatic effect on tumour growth |
